The values below come from patent US20250002514A1, “AMORPHOUS FORM OF BISMUTH-1,2-ETHANEDITHIOL AND METHODS OF MAKING” (Microbion Corporation, priority 2021, published 2025).

A short description of series [1]: BisEDT single-dose rat PK studies comparing inhalation, IV and oral dosing. It counts as in vivo. As for the experimental part: Based on existing in vivo and in vitro toxicology data as well as rat PK and in vitro MIC data, BisEDT suspension for inhalation can be reliably administered at doses providing efficacious lung levels that are tolerated, and it is therefore a viable clinical development candidate. […] 24 hours after single inhalation dose 4,093 ng/g was measured in the lung tissue (which equates to 123 μg/mL in lung fluid) and 4 days (96 hrs) after single dose 2,600 ng/g in lung tissue (which equates to 78 μg/mL in lung fluid). Without being bound by any particular theory, it is believed BisEDT's low solubility provides slow dissolution and long exposure on lung surface fluids with limited systemic exposure via diffusion through lung epithelium. The lung appears to act as a depot for slow systemic exposure with about 10× lower systemic levels than seen in the lung. The terminal phase of the IV data appears to show slow elimination after initial tissue distribution (FIG. 10).

Series [2] deals with Pseudomonas aeruginosa strain PA01. As to the kind of experiment: Bacterial killing curves with and without 10% cystic fibrosis patient sputum. It counts as cell-based. As for the experimental part: Bacterial killing curves with BisEDT and BisBDT were performed in the presence of […] cystic fibrosis patient sputum in order to determine whether the test compounds are potentially inactivated by sputum. The assay is described in King P, Lomovskaya O, Griffith D C, Burns J L, Dudley M N. In vitro pharmacodynamics of levofloxacin and other aerosolized antibiotics under multiple conditions relevant to chronic pulmonary infection in cystic fibrosis. Antimicrob Agents Chemother, 54:143-8, 2010.
Sputum was collected from cystic fibrosis (CF) patient volunteers without recent antibiotic exposure after appropriate IRB approval. Sputum was sterilized by UV irradiation and sterilization was confirmed by culture. An overnight culture of Pseudomonas aeruginosa strain PA01 was used to inoculate fresh cultures in cation-adjusted Mueller-Hinton broth or cation-adjusted Mueller-Hinton broth plus 10% CF patient sputum. Drugs were added to individual culture tubes with and without sputum at the following final concentrations: • BisEDT: 0.1 μg/mL, 2 μg/mL, and 20 μg/mL • BisBDT: 0.1 μg/mL. 4 μg/mL, and 20 μg/mL
Tobramycin at 1 μg/mL was used as a comparator drug control known to be partially inactivated by patient sputum. Cultures were incubated with shaking at 37° C. and aliquots were removed every hour for quantitation of colony forming units per mL (CFU/mL) by serial dilution and plating on tryptic soy agar for a total of 6 hours. CFU were counted after incubation of the plates overnight at 37° C.

Series [3] is described as follows: Nose-only inhalation exposure in F344 rats: whole blood and lung BisEDT concentration (ICP-MS bismuth as surrogate). Type of series: in vivo. The following applies: rat; for concentration at 8 h: nominal time 8 hr; for concentration at 12 h: nominal time 12 hr; for concentration at 24 h: nominal time 24 hr; for concentration at 30 h: nominal time 30 hr. As for the experimental part:
Inhalation Exposure: The initial exposure of BisEDT (Bismuth-1,2-ethanedithiol) was formulated as a solution at 100 mg/mL in suspension in 0.5% Tween 80, 10 mM sodium phosphate, pH 7.4, in NaCl (adjusted to approximately 300 mOsm). Aerosols were generated with a commercial compressed air jet nebulizer, Pad LC Plus, operated with an inlet pressure of 20 psi. The aerosols were transitioned into a rodent nose-only inhalation exposure system. The exposure system was operated with an inlet air flow of […] and an exhaust air flow of −5 L/min.
Detailed gross necropsies were performed on all animals (found dead, moribund, or scheduled necropsy) and consisted of a complete external and internal examination including body orifices and cranial, thoracic, and abdominal organs and tissues. All gross findings will be recorded in descriptive terms. […] Lungs collected and weighed.
Tables 6 and 7 below show whole blood BisEDT versus time data and lung BisEDT concentration at sacrifice time data respectively.

Where [4] appears, read: both sexes, F344, whole blood, inhaled, single inhalation dose 47 μg/kg, read-out: Whole blood Mean BisEDT Conc.
Where [5] appears, read: both sexes, F344, whole blood, inhaled, single inhalation dose 124 μg/kg, read-out: Whole blood Mean BisEDT Conc.
Setting [6] is: both sexes, F344, whole blood, inhaled, single inhalation dose 400 μg/kg, read-out: Whole blood Mean BisEDT Conc.
Where [7] appears, read: both sexes, F344, whole blood, inhaled, single inhalation dose 3000 μg/kg, read-out: Whole blood Mean BisEDT Conc.

Like-named read-outs stand apart in the source and are kept apart here.

For the compound `C1C[S][Bi]([S]CC[S][Bi]2[S]CC[S]2)[S]1` [BisEDT, Bismuth-1,2-ethanedithiol], in series [1] (100 μg/kg inhalation and IV and 250 μg/kg oral, single dose), the Tolerability entry is given as “tolerated”. The “Systemic levels lower than seen in the lung (fold)” value in series [1] (after inhalation dosing) is “about 10 ×”. The “Duration of initial distribution into tissues after IV dosing (biphasic pattern)” value in series [1] (single 100 μg/kg IV dose) came to 18 h. Moreover, in series [1] (single 100 μg/kg IV dose), the “Half-life of lung levels after IV dosing” value is on record as “about 24 hour”. Further, the “Lung levels after IV dosing vs inhalation group” value in series [1] (single 100 μg/kg IV dose) is recorded as under 5%. In series [1] (single 100 μg/kg inhalation dose), the “Blood exposure after inhalation dosing” value was “sustained, moderate, blood exposure with relatively stable concentrations across time”. The “Blood concentrations after oral dosing” value in series [1] (single 250 μg/kg oral dose) was “very low, but sustained and measurable”. In addition, the “Lung levels after oral dosing” value in series [1] (single 250 μg/kg oral dose) is listed as “no lung levels”. In series [1] (single inhalation dose (100 μg/kg lung deposited)), the “Half-life in lung tissue after inhalation dosing” value is “about 4 days”. The “Bactericidal activity against PA01 at 0.1 μg/mL” value in series [2] (0.1 μg/mL, 6 hour assay) is on record as “not bactericidal”. For the same compound, in series [2] (10% CF patient sputum in cation-adjusted Mueller-Hinton broth), the “Effect of CF patient sputum on bactericidal activity” value is given as “partially inhibited”. For the same compound, the “Bactericidal activity against Pseudomonas aeruginosa strain PA01 in this assay” value in series [2] (overall conclusion of killing curves) is given as “bactericidal”. In addition, the concentration at 8 h in series [3] (setting [4]) was found to be 114 ng/mL; in series [3] (setting [5]) it was 247 ng/mL; in series [3] (setting [6]), 1700 ng/mL; in series [3] (setting [7]), 6570 ng/mL. Moreover, the results for the concentration at 12 h in series [3] (setting [4]), in series [3] (setting [5]) and in series [3] (setting [6]) were 98 ng/mL, 187 ng/mL and 1250 ng/mL, respectively. The concentration at 24 h in series [3] (setting [4]) was determined as 282 ng/mL; in series [3] (setting [5]) it was 571 ng/mL; in series [3] (setting [6]), 2700 ng/mL; in series [3] (setting [7]), 20500 ng/mL. Besides, the concentration at 30 h in series [3] (setting [4]) is 373 ng/mL; in series [3] (setting [5]), 668 ng/mL; in series [3] (setting [6]) it was 2740 ng/mL. In series [3] (both sexes, F344, whole blood, inhaled, single inhalation dose 3000 μg/kg, nominal time 1 hr, read-out: Whole blood Mean BisEDT Conc), the concentration at 1 h came to 485 ng/mL. For the same compound, in series [3] (both sexes, F344, whole blood, inhaled, single inhalation dose 3000 μg/kg, nominal time 2 hr, read-out: Whole blood Mean BisEDT Conc), the concentration at 2 h came out at 2500 ng/mL. Moreover, the “Lung Mean BisEDT Conc at sacrifice” value came to 4.8 ng/g in series [3] (single inhalation dose 47 μg/kg, sac time 30 hr); 5.9 ng/g in series [3] (single inhalation dose 124 μg/kg, sac time 30 hr); 12.1 ng/g in series [3] (single inhalation dose 400 μg/kg, sac time 30 hr); 82.3 ng/g in series [3] (single inhalation dose 3000 μg/kg, sac time 24 hr).

`NC[C@H]1O[C@H](O[C@H]2[C@H](O)[C@@H](O[C@H]3O[C@H](CO)[C@@H](O)[C@H](N)[C@H]3O)[C@H](N)C[C@@H]2N)[C@H](N)C[C@@H]1O` [tobramycin, reference compound]: in series [2] (tobramycin 1 μg/mL, 10% CF patient sputum, most time points), the “CFU higher in cultures with sputum compared to cultures without sputum” value is 0.5-1 log CFU/mL.
